Measured values taken from patent publication US9901079B2, “Inhibition of oncogenic kras-induced GM-CSF production and function” (New York University, priority 2011, dated 2018).

System: GM-CSF expression in Kras^G12D-PDEC
Test: GM-CSF mRNA expression in GFP-Kras^G12D-PDEC after pathway inhibitor treatment (quantitative RT-PCR)
Assay type: cell-based, mouse
Details: 24 hour treatment; U0126 2 μM, LY294002 10 μM (FIG. 3B)
From the text: Data are presented as an average fold induction over values from GFP-WT-PDEC or normal pancreata. Error bars indicate SD (n=3). […] Error bars indicate SD (n=3). […] Data are presented as an average fold induction over values from normal pancreatic tissue. Error bars indicate SD (n=3). FIG. 3D are photomicrographs showing immunohistochemical staining for GM-CSF protein in representative samples of human pancreatic cancer containing PanIN lesions (i-normal duct from adjacent non-malignant tissue; ii-iii PanIN lesions; iv-invasive PDA). White arrowheads indicate pancreatic duct (i), PanIN (ii and iii), and PDA (iv). Scale bars=50 μm. Extraction and reverse transcription of total RNA from PDECs was performed using RNeasy mini kit (QIAGEN) and QuantiTect reverse transcription kit (QIAGEN), respectively. SYBR Green PCR Master Mix (USB) was used for amplification and the samples were run on the Stratagene Mx 3005P. Expression levels were normalized by GAPDH.

## N#CC(=C(/N)Sc1ccccc1N)/C(C#N)=C(\N)Sc1ccccc1N [U0126]
  GM-CSF expression in Kras^G12D-PDEC: abrogation of GM-CSF expression
